The target of one data set is T1, hP2X7R (Homo sapiens, UniProt Q99572).
T1 construct: 3xFLAG (3flag); expressed in transfected cells; host or cells: rat striatum (female Wistar rats), transduced in vivo with the AAV vector rAAV_3flag-hP2X7R
T1 sequence (Q99572 1-595): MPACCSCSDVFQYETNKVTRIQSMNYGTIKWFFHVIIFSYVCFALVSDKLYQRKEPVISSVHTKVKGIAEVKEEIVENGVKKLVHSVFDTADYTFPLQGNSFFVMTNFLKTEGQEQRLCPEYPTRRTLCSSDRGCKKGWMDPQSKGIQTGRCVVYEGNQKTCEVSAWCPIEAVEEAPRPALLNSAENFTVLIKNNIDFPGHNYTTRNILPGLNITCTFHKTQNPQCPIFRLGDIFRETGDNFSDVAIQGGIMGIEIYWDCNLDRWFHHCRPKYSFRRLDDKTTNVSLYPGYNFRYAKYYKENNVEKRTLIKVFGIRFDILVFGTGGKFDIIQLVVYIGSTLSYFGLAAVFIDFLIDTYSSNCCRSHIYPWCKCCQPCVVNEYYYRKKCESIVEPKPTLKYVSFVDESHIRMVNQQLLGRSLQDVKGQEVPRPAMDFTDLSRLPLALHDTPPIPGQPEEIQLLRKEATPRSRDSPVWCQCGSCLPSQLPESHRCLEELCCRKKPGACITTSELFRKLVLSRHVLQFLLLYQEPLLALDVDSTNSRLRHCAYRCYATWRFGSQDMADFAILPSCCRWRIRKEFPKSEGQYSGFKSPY
The experiment in a line: PET imaging in rats locally overexpressing hP2X7R in right striatum. The note with it: PET. Format: in vivo, rat. The method, then: Uptake of [^11C]SMW139 was 1.5-fold higher in the right striatum compared with the contralateral striatum at 4–15 min p.i. (n = 3; Fig. 6A,B, and Supplementary Figure S5, 5 weeks after vector injection). […] (2.85 ± 0.69 vs. 2.30 ± 0.36 in contralateral striatum) throughout the remainder of the scanning time.
Female rats were injected with the hP2X7R expressing vector in the right striatum, and eGFP expressing vector in the left striatum, which is described in detail in the Supplementary Information. […] To confirm stable expression of hP2X7R during the time period in which PET scanning studies were conducted, autoradiography experiments were performed both prior to and following PET experiments. In a dedicated small animal PET scanner (nanoPET, Mediso Ltd.), 60 min dynamic PET scans were acquired immediately after intravenous administration of 16–20 MBq of [^11C]SMW139. […] 45 min prior to tracer injection. After data reconstruction (details in Supplementary Information), images were analysed using the freely available AMIDE software (version 0.9.2; http://amide.sourceforge.net). ROIs were drawn around ipsi- and contralateral striata. Results are expressed as standardised uptake values (SUVs) and error bars indicate standard deviation.
Stereotactic injection of viral vector […]
to a 10 µL Hamilton syringe. […]
dorsoventral -0.64 cm relative to bregma. […]
minutes before removing it slowly.
Rats were sacrificed for in
Dynamic PET imaging was performed using dedicated small animal NanoPET/CT and NanoPET/MR scanners (Mediso Ltd., Budapest, Hungary) which are equipped with identical PET components. […]
anaesthetised with 4% and 2% isoflurane in oxygen (1 L·min-1) for induction and maintenance, respectively. Rats were positioned on the scanner bed and their respiratory rate was monitored during the entire scan, and anaesthesia was adjusted whenever required. Dynamic PET scans were acquired immediately after intravenous (i.v.) administration of 16-20 MBq of [11C]SMW139 via the tail vein. For […]
hydroxypropyl)-β-cyclodextrin in water for injection 45 min prior to tracer injection. PET scans were acquired in list mode and rebinned into the following frame sequence: 4 × 5, 4 x 10, 2 x 30, 3x 60, 2 x 300, 1 x 600, 1 x 900 and 1 x 1200 s. Reconstruction was performed using a fully 3-dimensional reconstruction algorithm (Tera-TomoTM, Mediso Ltd.) with 4 iterations and 6 subsets, and an isotropic 0.4 mm voxel dimension. Images were analysed using the freely available AMIDE software (version 0.9.2; http://amide.sourceforge.net). 3D ellipsoid ROIs (dimensions x = 3.4 mm, y = 3.6 mm, z = 2.9 […]
mm) were drawn within ipsi- and contralateral striata. Results are expressed as standardised uptake values (SUVs) and error bars indicate standard deviation. SUV were calculated as follows, with cimg in MBq/mL, injected dose in MBq and bodyweight in kg:
An unpaired two-tailed t-test was used for statistical analysis of PET data, which was performed using […]
allowed to recover for 1 week after scanning. After 1 week of recovery following the final scan (12 weeks after stereotactic vector injection) animals were sacrificed, and brains were excised and stored […]
Extended single microdose toxicity study
A single microdose toxicity study according to EMEA guideline EMA/CPMP/ICH/286/1995 (December 2009) was performed in healthy Wistar rats at a 1000 times higher dose than the maximal dose […]
minimum specific activity of 18.5 GBq·µmol-1). Animals were allowed to acclimatise for 10 days, group-housed and in an enriched environment with food and water available ad libitum, and with a 12-hour light-dark cycle in a temperature controlled room.

Data set [1] in a line: LogDoct,7.4 by shake-flask method (1-octanol / 0.2 M phosphate buffer pH 7.4). The note with it: mean ± SD, read-out: LogDoct,7.4 (n = 3). Format: physicochemical. On the procedure: The LogDoct,7.4 of analogues [^11C]1–3 and [^11C]SMW139 ([^11C]4) was determined using the shake-flask method (partitioning between 1-octanol and 0.2 M phosphate buffer (pH 7.4)). Determined LogDoct,7.4 values (Table 1) show the same trend as LogD values reported by Wilkinson et al.[10].
LogDoct,7.4 of [^11C]1–3 and [^11C]SMW139 was determined by the shake-flask method as described in the Supplementary Information.
Analytical HPLC chromatogram of [11C]SMW139 formulation (Platinum C18, MeCN/H2O/TFA 45:55:0.1, 1 […]
Determination of LogDoct,7.4
The distribution of radiolabelled compound between 1-octanol and 0.2 M phosphate buffer (pH = 7.4) was measured at room temperature. Briefly, 1 mL of a 20 MBq·mL-1 solution of radiolabelled compound in 0.2 M phosphate buffer (pH = 7.4) was mixed with 1 mL of 1-octanol for 1 min using a vortex mixer. After a settling period of 30 min, three samples of 100 μL were taken from both layers.
All samples were counted for radioactivity in a Wallac Universal Gammacounter 1282 (PerkinElmer, Waltham, MA, USA). The LogDoct,7.4 value was calculated according to LogDoct,7.4 = 10Log(Aoct/Abuffer), where Aoct and Abuffer represent average radioactivity counts of the three 1-octanol and the three […]
(1 picture or pasted object on this page, not shown here)

With `[11CH3]Oc1ccc(Cl)c(C(=O)NCC23CC4(F)CC(F)(CC(F)(C4)C2)C3)c1` [[^11C]SMW139], the “Time of peak of ipsi- to contralateral striatum ratio after tracer injection” value on hP2X7R is not above 15 min. For the same molecule, the “Uptake in right (hP2X7R) striatum compared with contralateral striatum” value at hP2X7R (4–15 min p.i., n = 3, 5 weeks after vector injection) was found to be 1.5 fold. The “Uptake in rAAV_3flag-hP2X7R striatum after pre-treatment with JNJ-47965567” value at hP2X7R (2 min p.i., JNJ-47965567 30 mg·kg^−1 s.c. 45 min prior to tracer, n = 3, 11 weeks after vector injection) is 2.40 ± 0.22 SUV. Besides, on hP2X7R (2 min p.i., baseline), the “Uptake in contralateral striatum” value was 2.30 ± 0.36 SUV and the “Uptake in rAAV_3flag-hP2X7R striatum” value is given as 2.85 ± 0.69 SUV. For the same molecule, the logD in data set [1] was 2.7 ± 0.01.

The values above are taken from publication PMC5920098, “Identification of the allosteric P2X7 receptor antagonist [^11C]SMW139 as a PET tracer of microglial activation” (Scientific Reports, 2018).
